pIC50: −log10 of the molar value.
How the values were obtained:
[1] = Competitive binding affinity to human muscarinic acetylcholine receptor M2 expressed in […] cells assessed as W84 pIC50 at 2 nM after 2 hrs by liquid scintillation counting assay
[2] = Competitive binding affinity to human muscarinic acetylcholine receptor M2 expressed in […] cells assessed as W84 pIC50 at 4 nM after 2 hrs by liquid scintillation counting assay
[3] = Competitive binding affinity to human muscarinic acetylcholine receptor M2 expressed in […] cells assessed as W84 pIC50 at 8 nM after 2 hrs by liquid scintillation counting assay
[4] = Competitive binding affinity to human muscarinic acetylcholine receptor M2 expressed in […] cells assessed as W84 pIC50 at 30 nM after 2 hrs by liquid scintillation counting assay
[5] = Competitive binding affinity to human muscarinic acetylcholine receptor M2 expressed in […] cells assessed as W84 pIC50 at 15 nM after 2 hrs by liquid scintillation counting assay
[6] = Competitive binding affinity to human muscarinic acetylcholine receptor M2 expressed in […] cell homogenates assessed as W84 pIC50 at 1 nM after 2 hrs by liquid scintillation counting assay
[7] = Competitive binding affinity to human muscarinic acetylcholine receptor M2 expressed in […] cell homogenates assessed as W84 pIC50 at 4 nM after 2 hrs by liquid scintillation counting assay
[8] = Competitive binding affinity to human muscarinic acetylcholine receptor M2 expressed in […] cell homogenates assessed as W84 pIC50 at 2 nM after 2 hrs by liquid scintillation counting assay
[9] = Competitive binding affinity to human muscarinic acetylcholine receptor M2 expressed in […] cell homogenates assessed as W84 pIC50 at 0.4 nM after 2 hrs by liquid scintillation counting assay

Compound	pIC50 [1]	pIC50 [2]	pIC50 [3]	pIC50 [4]	pIC50 [5]	pIC50 [6]	pIC50 [7]	pIC50 [8]	pIC50 [9]
[3H]CC([3H])C(=O)NCCNC(=O)CCc1cn(CCCCC2CCN(CC(=O)N3c4ccccc4NC(=O)c4ccccc43)CC2)cn1 (centres undefined)	6.74	6.55	6.20	5.68	5.87				
[3H]CC([3H])C(=O)NCc1cc(C(=O)NCCNC(=O)CCc2cn(CCCCC3CCN(CC(=O)N4c5ccccc5NC(=O)c5ccccc54)CC3)cn2)cc(C(=O)NCCNC(=O)CCc2cn(CCCCC3CCN(CC(=O)N4c5ccccc5NC(=O)c5ccccc54)CC3)cn2)c1 (centres undefined)						5.18	4.73	4.98	5.57

From BindingDB's records for doi:10.1021/acs.jmedchem.6b01892 (University of Regensburg, 2017)
